Experimental findings from US20230084927A1, “GLUCOSE UPTAKE INHIBITORS AND USES THEREOF” (METABOMED LTD., priority 2019, published 2023) are described below.

Where only a bound is given, the exact number is not on record here.

The subject of assay [1] is SDH-KO-HRAS cells (SDHB-deficient). In words: Cellular / differential toxicity assay (CellTiter-Glo, 3 days). It is filed as cell-based, murine. Conditions: Mus musculus, 72 h, toxicity, SDH-KO cells, 3 days, CellTiter-Glo; read-out: EC50 (uM) SDH-KO-HTAS-C17. The procedure: (§1) Identification of compounds that target specifically SDH-deficient cells was done by screening a library of small-molecule by using a differential toxicity screen with SDHB-proficient vs. SDHB-deficient cells (the […] cells were described in Cardaci 2015).
(§2) Cells Used for the Differential Assays: SDH-WT; SDH-KO-HRAS
(§3) Cell Culture Conditions: • Medium: DMEM-F12 medium+1 mM Glutamine+3% FBS • Plates: 96 well plate—Black, clear flat bottom • Incubation time: 3 days • Compound concentration: 10 point dilution starting from 10 uM to 0.0065 uM or a lower range when needed. • Viability assay at the end of incubation: Celltiter-Glo (CTG) from Promega.
(§4) Protocol: • Day 1: Plate cells in 96 well plate together with the appropriate concentration of compound.
(§5) Incubate for 3 days at 37° C. in 5% CO2 tissue culture incubator. • Day 4: Check viability of cells by adding CTG reagent and read luminescence in plate reader
(§6) SDH-WT and SDH-KO cells were grown in DMEM F12 supplemented with 1 mM Glutamine+3% FBS were treated with different concentrations of the indicated compounds in FIG. 11. Cell viability was determined 72 hours later by CellTiter Glue reagent (Promega), the luminescence was measured with ClarioStar reader (BMG) and the EC50s were calculated by Prism.
(§7) SDH-WT and SDH-KO cells were grown in DMEM F12 supplemented with 1 mM Glutamine+3% FBS were treated with different concentrations of the indicated compounds. Cell viability was determined 72 hours later by CellTiter Glue reagent (Promega), the luminescence was measured with ClarioStar reader (BMG) and the EC50s were calculated by Prism.
(§8) The cells were grown in DMEM F12 supplemented with 1 mM Glutamine+3% FBS were treated with different concentrations of the indicated compounds. Cell viability was determined 72 hours later by CellTiter Glue reagent (Promega), the luminescence was measured with ClarioStar reader (BMG) and the EC50s were calculated by Prism. Murine SDHB-WT/KO, HRAS transformed isogenic pair (FIG. 12A); UOK269, Human Tumor-derived SDHB-deficient RCC in their WT counterpart with re-expression of SDHB (FIG. 12B); and ACHN, RCC cells, and their SDHB-KO (SDHB CRISPRed out) isogenic cells (FIG. 12C).
(ATP-based viability assays read luminescence as a measure of living cells.)

A further assay deals with SDH-WT cells. The assay is described as above. Particulars: Mus musculus, 72 h, toxicity, SDH-WT cells, 3 days, CellTiter-Glo; read-out: EC50 (uM) SDH-WT. In kind it is cell-based, murine. The procedure:
as §1, §2, §3, §4, §5, §6, §7, §8

For orientation: EC50 means the concentration that produces a half-maximal response. On to `CCOC(=O)C1CCc2nc3sc4c(NCCc5ccc(OC)c(F)c5)ncnc4c3cc2C1` (centres unmarked) [Compound 302], for which the EC50 (in assay [1]; with SDH-WT cells) was above 10 µM each time.
`CN(C)CCCNc1ncnc2c1sc1nc3c(cc12)COC(C)(C)C3` [Compound 228]: the EC50 (in assay [1]; in the assay on SDH-WT cells) was above 10 µM in each case.
For `CC1(C)Cc2nc3sc4c(NCCc5ccc6[nH]ccc6c5)ncnc4c3cc2CO1` [Compound 116], the EC50 in assay [1] is 1 to 3 µM; in the assay on SDH-WT cells, 3 to 10 µM.
For the compound `CC(C)Nc1ncnc2c1sc1nc3c(cc12)COC(C)(C)C3` [Compound 134], the EC50 (in assay [1]; in the assay on SDH-WT cells) was above 10 µM each time.
For the compound `COc1ccc(CCNc2ncnc3c2sc2nc4c(cc23)COC(C)(C)C4)cc1` [Compound 129], the EC50 is below 1 µM in assay [1] and above 10 µM with SDH-WT cells.
With `CCCN(CCC)c1nc(C)nc2c1sc1nc3c(cc12)COC(C)(C)C3` [Compound 248], the EC50 (in assay [1]; with SDH-WT cells) was above 10 µM throughout.
As to `Cc1nc(NCc2ccccc2)c2sc3nc4c(cc3c2n1)COC(C)(C)C4` [Compound 254], the EC50 (in assay [1]; in the assay with SDH-WT cells) was above 10 µM each time.
For `COc1ccc(CCNc2ncnc3c2sc2ncccc23)cc1OC` [Compound 126], the EC50 in assay [1] was in the range of 1 to 3 µM; in the assay on SDH-WT cells it was 3 to 10 µM.
As to `CC(Cc1ccccc1)Nc1ncnc2c1sc1nc3c(cc12)COC(C)(C)C3` (centres unmarked) [Compound 276], the figures for the EC50 (in assay [1]; in the assay on SDH-WT cells) were above 10 µM and 3 to 10 µM, respectively.
For `Cc1nc(N)c2sc3nc4c(cc3c2n1)COC(C)(C)C4` [Compound 237], in that order: 3 to 10 µM and above 10 µM.
Regarding `CNC(=O)c1ccc(CCNc2ncnc3c2sc2nc4c(cc23)COC(C)(C)C4)cc1` [Compound 142], the EC50 in assay [1] was below 1 µM; with SDH-WT cells it was 3 to 10 µM.
In the case of `Cc1nc(N2CCC(C)CC2)c2sc3nc4c(cc3c2n1)COC(C)(C)C4` [Compound 263], the EC50 (in assay [1]; in the assay with SDH-WT cells) was above 10 µM each time.
For `CC1(C)Cc2nc3sc4c(NCc5ccco5)ncnc4c3cc2CO1` [Compound 232], the 50% effective concentration (EC50) (in assay [1]; in the assay with SDH-WT cells) was above 10 µM throughout.
In the case of `CC1(C)Cc2nc3sc4c(N5CCCCC5)ncnc4c3cc2CO1` [Compound 138], the EC50 (in assay [1]; in the assay with SDH-WT cells) was above 10 µM each time.
As for `CSc1c2c(nc3sc4c(NCCc5ccc6nc[nH]c6c5)ncnc4c13)CC(C)(C)OC2` [Compound 167], the EC50 (in assay [1]; with SDH-WT cells) was below 1 µM in each case.
Take `COCCOCCOCCOCCOCCOC(=O)c1c2c(nc3sc4c(NCCc5ccc6[nH]cnc6c5)ncnc4c13)CC(C)(C)OC2` [Compound 163]: the values for the EC50 (in assay [1]; in the assay on SDH-WT cells) were 1 to 3 µM and above 10 µM, respectively.
`CC1CCCCN1c1ncnc2c1sc1nc3c(cc12)COC(C)(C)C3` (centres unmarked) [Compound 282]: the concentration giving a half-maximal response (EC50) (in assay [1]; with SDH-WT cells) was above 10 µM throughout.
For `CC(C)COCc1c2c(nc3sc4c(NCCc5ccc6[nH]cnc6c5)ncnc4c13)CC(C)(C)OC2` [Compound 323, N-(2-(1H-Benzo[d]imidazol-5-yl)ethyl)-11-(isobutoxymethyl)-8,8-dimethyl-7,10-dihydro-8H-pyrano[3″,4″:5′,6′]pyrido[3′,2′:4,5]thieno[3,2-d]pyrimidin-4-amine], the EC50 (in assay [1]; in the assay on SDH-WT cells) was below 1 µM each time.
For `CC1(C)Cc2nc3sc4c(NCCN5CCOCC5)ncnc4c3cc2CO1` [Compound 267], the EC50 (in assay [1]; in the assay with SDH-WT cells) was above 10 µM throughout.
As to `CC1(C)Cc2nc3sc4c(NCCc5ccc(NC(N)=O)cc5)ncnc4c3cc2CO1` [Compound 141], the results for the EC50 (in assay [1]; in the assay on SDH-WT cells) were below 1 µM and above 10 µM, respectively.
With `Cc1nc(NCCc2ccc3[nH]cnc3c2)c2sc3nc4c(cc3c2n1)COC(C)(C)C4` [Compound 313], the EC50 (in assay [1]; with SDH-WT cells) was 3 to 10 µM in each case.
Turning to `COc1ccc(CCn2cnc3c(sc4nc5c(cc43)COC(C)(C)C5)c2=O)cc1F` [Compound 301], the EC50 (in assay [1]; in the assay with SDH-WT cells) was above 10 µM in each case.
As for `OC1CCc2nc3sc4c(NCCc5ccc6[nH]cnc6c5)ncnc4c3cc2C1` (centres unmarked) [Compound 169], the EC50 in assay [1] is below 1 µM; in the assay on SDH-WT cells it was 1 to 3 µM.
As to `CC1(C)Cc2nc3sc4c(NCCc5ccc6[nH]cnc6c5)ncnc4c3c(CO)c2CO1` [Compound 306], the half-maximal effective concentration (EC50) (in assay [1]; in the assay on SDH-WT cells) was above 10 µM each time.
With `COCCOCCOCCOC(=O)c1c2c(nc3sc4c(NCCc5ccc6[nH]cnc6c5)ncnc4c13)CC(C)(C)OC2` [Compound 165, 2-(2-(2-Methoxyethoxy)ethoxy)ethyl 4-((2-(1H-benzo[d]imidazol-6-yl)ethyl)amino)-8,8-dimethyl-8,10-dihydro-7H-pyrano[3″,4″:5′,6′]pyrido[3′,2′:4,5]thieno[3,2-d]pyrimidine-11-carboxylate], the EC50 in assay [1] is 1 to 3 µM; with SDH-WT cells it was above 10 µM.
Turning to `CC(C)c1nc(NCCc2ccc3[nH]cnc3c2)c2sc3nc4c(cc3c2n1)COC(C)(C)C4` [Compound 311], the figures for the EC50 (in assay [1]; with SDH-WT cells) were 1 to 3 µM and above 10 µM, respectively.
As to `CN(CCO)c1ncnc2c1sc1nc3c(cc12)COC(C)(C)C3` [Compound 278], the EC50 (in assay [1]; in the assay with SDH-WT cells) was above 10 µM each time.
For the compound `CC1(C)Cc2nc3sc4c(NCCc5ccccc5)ncnc4c3cc2CO1` [Compound 260], the half-maximal effective concentration (EC50) (in assay [1]; in the assay on SDH-WT cells) was above 10 µM each time.
On to `CC1(C)Cc2nc3sc4c(NCCc5ccc(NCc6ccccc6)c(N)c5)ncnc4c3cc2CO1` [Compound 192], for which the EC50 (in assay [1]; in the assay on SDH-WT cells) was below 1 µM each time.
For `CC1(C)Cc2nc3sc4c(NCCc5ccc(O)c([N+](=O)[O-])c5)ncnc4c3cc2CO1` [Compound 174], the concentration for a half-maximal effect (EC50) in assay [1] is 3 to 10 µM; with SDH-WT cells, below 1 µM.
`COc1ccc(CCNc2ncnc3c2sc2nc(C=C(C)C)c(CCl)cc23)cc1F` [Compound 104]: the EC50 in assay [1] was in the range of 1 to 3 µM; in the assay on SDH-WT cells, 3 to 10 µM.
Consider `CC1(C)CCc2cc3c(nc2C1)sc1c(CCC2(c4ccccc4)CCCC2)cccc13` [Compound 293], for which the EC50 (in assay [1]; in the assay on SDH-WT cells) was above 10 µM each time.
On to `CCC(C)Nc1ncnc2c1sc1nc3c(cc12)COC(C)(C)C3` (centres unmarked) [Compound 299], for which the half-maximal effective concentration (EC50) (in assay [1]; with SDH-WT cells) was above 10 µM in each case.
Take `CCCCNc1nc(C)nc2c1sc1nc3c(cc12)COC(C)(C)C3` [Compound 229]: the values for the half-maximal effective concentration (EC50) (in assay [1]; in the assay on SDH-WT cells) were 3 to 10 µM and above 10 µM, respectively.
In the case of `COc1ccc(CCNc2ncnc3c2sc2nc4c(cc23)COC(C)(C)C4)cc1C(F)(F)F` [Compound 161], the EC50 (in assay [1]; with SDH-WT cells) was 3 to 10 µM each time.
Turning to `COc1cccc(OC)c1CCNc1ncnc2c1sc1nc3c(cc12)COC(C)(C)C3` [Compound 162], the EC50 (in assay [1]; in the assay on SDH-WT cells) was below 1 µM in each case.
For the compound `CN(C)C(=O)c1ccc(CCNc2ncnc3c2sc2nc4c(cc23)COC(C)(C)C4)cc1` [Compound 150], the EC50 in assay [1] is 1 to 3 µM; with SDH-WT cells it was above 10 µM.
With `CC(=O)CN(C(=O)C(F)(F)F)c1ccc(CCNc2ncnc3c2sc2nc4c(cc23)COC(C)(C)C4)cc1F` [Compound 198], the half-maximal effective concentration (EC50) in assay [1] is below 1 µM; in the assay on SDH-WT cells, 3 to 10 µM.
With `CC1(C)Cc2nc3sc4c(NCCc5ccc6[nH]c(=O)[nH]c6c5)ncnc4c3cc2CO1` [Compound 196], the EC50 in assay [1] is below 1 µM; in the assay with SDH-WT cells, 3 to 10 µM.
Take `CC(O)CN(CC(C)O)c1ncnc2c1sc1nc3c(cc12)COC(C)(C)C3` (centres unmarked) [Compound 285]: the EC50 (in assay [1]; in the assay with SDH-WT cells) was above 10 µM in each case.
Turning to `Cc1nc(NCCO)c2sc3nc4c(cc3c2n1)COC(C)(C)C4` [Compound 250], the EC50 (in assay [1]; in the assay with SDH-WT cells) was above 10 µM throughout.
Turning to `CCN(CC)CCNc1nc(C)nc2c1sc1nc3c(cc12)COC(C)(C)C3` [Compound 234], the EC50 (in assay [1]; in the assay with SDH-WT cells) was above 10 µM each time.
Consider `COc1ccc(CCN(C)c2ncnc3c2sc2nc4c(cc23)COC(C)(C)C4)cc1F` [Compound 100], for which the values for the EC50 (in assay [1]; in the assay on SDH-WT cells) were 3 to 10 µM and above 10 µM, respectively.
Consider `COc1cc(CCNc2ncnc3c2sc2nc4c(cc23)COC(C)(C)C4)cc(OC)c1` [Compound 102], for which the results for the concentration for a half-maximal effect (EC50) (in assay [1]; in the assay on SDH-WT cells) were 3 to 10 µM and above 10 µM, respectively.
As to `CC(C)CCNc1ncnc2c1sc1nc3c(cc12)COC(C)(C)C3` [Compound 239], the EC50 (in assay [1]; with SDH-WT cells) was above 10 µM in each case.
On to `CCCCCNc1ncnc2c1sc1nc3c(cc12)COC(C)(C)C3` [Compound 243], for which the EC50 (in assay [1]; with SDH-WT cells) was 3 to 10 µM in each case.
